One may read the melting point as the temperature, or range, at which the solid turns liquid.

This is an account of results in a melting point compilation (Tetko et al.; mined from patent text by program, amines drawn as free bases though some values may be those of a salt).

As to `CCCCCCCCCCCCNC(=O)n1nc(Oc2ncc(C(F)(F)F)cc2Cl)c(Cl)c1C`, the melting point fell in the range of 68 to 70 °C.
Next, `CCOC(=O)c1c(N)sc(N)c1C(=O)OCC`: 155 to 158 °C; `Cc1c(F)cccc1Cc1c(-c2ccccc2)c2ccccn2c1C(=O)N1CCN(C(=O)OC(C)(C)C)[C@@H](CCO)C1`: 85 °C.
The result for `COc1ccc(CC(C)NCC(O)c2cccc(F)c2)cc1` (configuration not stated) reads 85 to 89 °C; that for `CC(C)c1cccc(C(C)C)c1NC(=O)CN1CCN(CCSc2nc3cccc(CO)c3o2)CC1`, 138 to 139 °C; that for `CSc1nccc(Oc2ccc(NC(=O)c3cccc(OC(C)(C)C)c3)c3ccccc23)n1`, 135 to 136 °C.
In turn, `CN(C)CC(C(O)c1ccc(N)cc1)N1CCC(Cc2ccccc2)CC1` (configuration not stated) showed a melting point of 121 to 125 °C.
The result for `CC(=O)n1nc(-c2c(C)cc(C)c([N+](=O)[O-])c2C)n2nc(C(C)(C)C)c(Cl)c12` reads 188 to 191 °C.
The result for `O=C1c2ccccc2CCn2cccc21` reads 54 to 55 °C; that for `C[C@@H](O)CNC1=NS(=O)(=O)c2sc(Cl)cc2N1`, 210 to 211 °C.
The result for `O=C1c2cc(Sc3ccccc3)c(Sc3ccccc3)cc2C(=O)c2c1c(O)c1cc(Sc3ccccc3)c(Sc3ccccc3)cc1c2O` reads more than 260 °C.
`COC(=O)c1ccc(C#N)c(OC)n1` came in with a melting point of 125 °C.
`Nc1nnc2ccc(-c3ccco3)nn12` came in with a melting point of 203 to 206 °C.
The result for `CN1CCN(c2ccc(Nc3ncc4cc5ccccc5n4n3)cc2)CC1` reads 217 to 222 °C; that for `CC(=O)NC[C@H]1CN(c2ccc(N3CCC(=C(C#N)Cc4ccccc4)CC3)c(F)c2)C(=O)O1`, 98 to 100 °C; that for `CN1CCN(C2=Nc3ccccc3N3CCCc4cccc2c43)CC1`, 129 to 132 °C.
Regarding `CCc1ccc(-c2ccc3c(c2)C=C(C(=O)Nc2ccc(CN(C)C4CCOCC4)cc2)CCS3(=O)=O)cc1`, the melting point was in the range of 257 to 260 °C.
The compound `CN(C)c1ccc(C(=S)Nc2ccc([N+](=O)[O-])cc2)cc1` yielded a melting point of 210 °C.
The result for `CCCCOC(=O)Cc1nc(-c2ccccc2)oc1-c1ccsc1` reads 71 to 72 °C; that for `CC(C)(C)c1ccc(C(=O)c2c(N)sc3c2CCN(Cc2ccccc2)C3)cc1`, 124 to 125 °C; that for `CCOC(=O)c1sc(-n2cn[nH]c2=O)nc1C`, 165 to 167 °C.
In turn, `CCn1c(Oc2ccc(F)cc2)nnc1[C@@H](C)N(C)S(=O)(=O)c1ccc(Cl)c(Cl)c1` returned a melting point of 126 °C.
The result for `COc1cc(C2=CCN(S(=O)(=O)C(C)(C)C(=O)NO)CC2)ccc1-c1ccccc1` reads 156 to 158 °C; that for `O=C(CO[C@H]1Cc2c(cccc2OCc2ccccc2)C[C@H]1OCC(=O)N1CCOCC1)N1CCOCC1` (relative stereo), 106 to 110 °C; that for `C=Cc1cc2cc(OC)ccc2[nH]1`, 80 to 81 °C.
The result for `Nc1nc(Cl)c(Cl)c(NCC2(CO)CCC2)n1` reads 179 to 181 °C.
Next, `Oc1cccc(-n2nnnc2S)c1`: 176 to 178 °C; `CCCCCCCCCCCCCCCCCCOc1cccc(C(=O)OC)c1O`: 57 to 60 °C.
`CCCCN(CC(=O)O)S(=O)(=O)c1ccc(N2CCC(NC[C@H](O)c3ccc(O)c(NS(C)(=O)=O)c3)CC2)cc1` registered a melting point of 125 to 138 °C.
The result for `OCCCc1cnoc1-c1ccc(Cl)c(Br)c1` reads 75 to 76 °C; that for `Nc1cccc(C(=O)Nc2cccc3cc(Br)cnc23)c1`, 209 to 211 °C; that for `COC(=O)c1cc2c3ccccc3n(Cc3ccccc3)c2s1`, 158 to 159 °C.
Compound `CC(=O)OCC1OC(n2c(Cl)nc3ccc(Cl)cc32)C(OC(C)=O)C1OC(C)=O` (configuration not stated) had a melting point of 155 to 157 °C.
The result for `COc1cc(OC)nc(NC(=O)NS(=O)(=O)c2c([Si](C)(C)C)ccc3c2S(=O)(=O)C(C)C3)n1` (configuration not stated) reads 188 to 190 °C; that for `CNc1nc(-c2ccccc2)c(-c2nc3ccccc3c(=O)n2-c2ccc(C(C)=O)cc2)s1`, 239 to 240 °C; that for `c1csc(CNCc2ccc(-c3cc4ncnc(Nc5ccc6[nH]ccc6c5)c4s3)cc2)c1`, 111 to 121 °C.
The result for `COc1cc2c(-c3ccnc(NN)c3)c(CO)c(CO)cc2cc1OC(C)C` reads 128 to 131 °C.
The result for `CCC12CCC3C4CCCC=C4CCC3C1C=CC2=O` (configuration not stated) reads 125 °C; that for `Cc1nc(C(Cl)(Cl)Cl)nc(O)c1Cl`, 130 to 145 °C.
Compound `Cc1ccc(CCc2n[nH]c3c2c(=O)n(-c2ccccc2)c2ncccc32)cc1` displayed a melting point of 264 to 265 °C.
Next, `FC(F)(F)C1(c2cc(Cl)cc(Cl)c2)CC(c2ccc(Br)cc2)=NO1` (configuration not stated): 122 to 124 °C; `CNC(=O)C(=O)c1ccccc1Oc1ccccc1`: 94 to 95 °C.
The result for `CCOC(=O)CN1CC(=O)N(C)c2ccc([N+](=O)[O-])cc2C1=O` reads 129 to 130 °C; that for `CSc1coc2cc(NS(C)(=O)=O)c(Oc3ccccc3)cc2c1=O`, 175 to 176 °C; that for `CC(=O)NC1(c2ccc(CN3CCN(c4ncccn4)CC3)cc2)CC1`, 145 to 146 °C.
For `O=C(CCCN1CC=C(c2noc(C3CC3)n2)CC1)c1ccc(F)cc1`, the melting point was 67 to 68 °C.
Next, `O=c1[nH]c2ccc(CCN3CCN(c4cccc5c4CCCC5)CC3)cc2o1`: 200 °C; `CCCCCCCCCCCCS(=O)(=O)Nc1cc(-c2cc3cc(F)c(F)cc3[nH]2)ccc1OC`: 148 to 149 °C.
The result for `CCOC(=O)Cc1c(-c2ccc(C)cc2)nn2cccnc12` reads 69 to 71.5 °C; that for `C[C@@H]1c2onc(-c3ccc(Cl)cc3)c2CC[C@H]1C(=O)O` (relative stereo), 183 to 186 °C; that for `O=C(N1CCCN(C(=O)C(F)(F)F)CCN(C(=O)C(F)(F)F)CCCN(C(=O)C(F)(F)F)CC1)C(F)(F)F`, 217 to 218 °C.
On to `CC(=O)Nc1ccc(C(=O)O)cc1OCCO`, for which the melting point was determined as 208 °C.
The result for `Oc1cc2c3ccc(O)c(O)c3n(Cc3ccccc3)c2cc1O` reads 241 to 246 °C.
Take `Cn1c(C(F)(F)F)cc(=O)n(-c2cc(OC=O)c(Cl)cc2F)c1=O`: the melting point was in the range of 97 to 99 °C.
Compound `OC(CCCl)c1ccccc1` (configuration not stated) registered a melting point of 56 to 57 °C.
Compound `CC(C)(C)OC(=O)N[C@@H](Cc1ccccc1)C(=O)N[C@H]1CCOC1=O` returned a melting point of 132 to 133 °C.
`O=c1n(CCCN2CC=C(c3c[nH]c4ccccc34)CC2)nc2ccccn12` came in with a melting point of 173 °C.
The result for `CCCCCCCCCCCCCCCCCCOc1cccc(N)c1` reads 77 to 78 °C.
In turn, `COP(C)(=O)C(O)[C@H](CC1CCCCC1)NC(=O)[C@H](CC(C)C)NC(=O)CCc1ccccc1` (some centres not stated) registered a melting point of 165 to 170 °C.
As for `CCSc1ccc(-c2ccncc2)c2c1C(=O)CC(C)C2` (configuration not stated), the melting point fell in the range of 145 to 147 °C.
Next, `COc1ccc([C@@H]2Sc3ccccc3N(CCN(C)C)C(=O)[C@@H]2O)cc1` (relative stereo): 88 to 90 °C; `CCOc1cc(C=O)cc2c1OC(C)(C)C2`: 33 to 36 °C.
